Measurements taken from patent publication US20100105655A1, “NOVEL COMPOUNDS 515” (ASTRAZENECA AB, priority 2008, published 2010).
pIC50: −log10 of the molar value.

The compounds below were run against T1, IGFR kinase (Homo sapiens, UniProt P08069) (assay: Enzyme assay (c), IGFR kinase, Caliper LabChip). Conditions: 30 nM IGFR kinase, 6 uM ATP, 3 uM peptide mix; read-out: IGFR IC50.
T1 construct: purchased Millipore
Format: biochemical

T1 sequence (P08069 31-1367): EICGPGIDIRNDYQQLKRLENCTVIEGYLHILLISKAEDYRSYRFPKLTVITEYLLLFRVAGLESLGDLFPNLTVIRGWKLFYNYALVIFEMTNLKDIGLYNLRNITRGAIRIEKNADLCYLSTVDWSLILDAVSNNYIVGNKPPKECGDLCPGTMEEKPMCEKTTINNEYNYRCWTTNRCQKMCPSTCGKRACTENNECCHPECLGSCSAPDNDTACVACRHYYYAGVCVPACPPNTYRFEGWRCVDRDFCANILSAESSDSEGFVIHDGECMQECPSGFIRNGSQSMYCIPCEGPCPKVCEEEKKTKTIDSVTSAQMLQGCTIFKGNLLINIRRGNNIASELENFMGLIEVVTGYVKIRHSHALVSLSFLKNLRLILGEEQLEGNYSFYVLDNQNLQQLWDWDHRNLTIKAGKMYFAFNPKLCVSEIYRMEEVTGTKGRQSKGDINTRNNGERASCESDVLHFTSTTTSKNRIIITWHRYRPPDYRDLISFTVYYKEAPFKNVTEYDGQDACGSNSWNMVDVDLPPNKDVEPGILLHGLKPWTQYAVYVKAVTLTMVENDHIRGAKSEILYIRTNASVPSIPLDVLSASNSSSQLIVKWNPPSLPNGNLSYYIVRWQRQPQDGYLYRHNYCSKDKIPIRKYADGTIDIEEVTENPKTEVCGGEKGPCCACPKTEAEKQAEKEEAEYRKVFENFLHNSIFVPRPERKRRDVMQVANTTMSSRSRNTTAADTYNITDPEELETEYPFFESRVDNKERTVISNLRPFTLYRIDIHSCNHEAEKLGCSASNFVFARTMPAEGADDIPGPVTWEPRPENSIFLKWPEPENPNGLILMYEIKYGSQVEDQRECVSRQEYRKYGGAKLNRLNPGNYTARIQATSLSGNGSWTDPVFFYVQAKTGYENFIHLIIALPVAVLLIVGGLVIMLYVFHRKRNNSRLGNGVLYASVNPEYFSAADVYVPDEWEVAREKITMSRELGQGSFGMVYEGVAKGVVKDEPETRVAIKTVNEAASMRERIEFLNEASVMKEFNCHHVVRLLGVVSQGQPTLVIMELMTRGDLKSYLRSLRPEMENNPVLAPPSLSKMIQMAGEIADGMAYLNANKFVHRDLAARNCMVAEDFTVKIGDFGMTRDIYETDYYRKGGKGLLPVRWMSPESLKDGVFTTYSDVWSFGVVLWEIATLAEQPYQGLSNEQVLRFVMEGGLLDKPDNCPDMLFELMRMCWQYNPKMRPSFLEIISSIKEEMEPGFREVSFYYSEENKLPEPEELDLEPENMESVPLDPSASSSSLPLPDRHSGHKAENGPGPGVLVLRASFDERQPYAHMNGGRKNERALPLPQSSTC

SMILES | pIC50
COc1cc(OC2CCN(C(C)=O)CC2)ccc1Nc1ncc(C(F)(F)F)c(-c2cnc3ccccn23)n1 [Example 110, 1-[4-[4-[[4-imidazo[1,2-a]pyridin-3-yl-5-(trifluoromethyl)pyrimidin-2-yl]amino]-3-methoxy-phenoxy]-1-piperidyl]ethanone] | 7.44
COc1cc(N2CCC(O)CC2)ccc1Nc1ncc(F)c(-c2cnc3ccccn23)n1 [Example 111, 1-[4-[(5-fluoro-4-imidazo[1,2-a]pyridin-3-yl-pyrimidin-2-yl)amino]-3-methoxy-phenyl]piperidin-4-ol] | 7.31
COc1ccc(C2CCNCC2)cc1Nc1ncc(F)c(-c2cnc3ccccn23)n1 [Example 112, 5-fluoro-4-imidazo[1,2-a]pyridin-3-yl-N-[2-methoxy-5-(4-piperidyl)phenyl]pyrimidin-2-amine] | 7.38
COc1cc(C2CCOCC2)ccc1Nc1ncc(F)c(-c2cnc3ccccn23)n1 [Example 113, 5-fluoro-4-imidazo[1,2-a]pyridin-3-yl-N-(2-methoxy-4-tetrahydropyran-4-yl-phenyl)pyrimidin-2-amine] | 7.48
COc1cc(OC[C@H]2CCCN2C(C)=O)ccc1Nc1ncc(OC)c(-c2cnc3ccccn23)n1 [Example 114, 1-[(2R)-2-[[4-[(4-imidazo[1,2-a]pyridin-3-yl-5-methoxy-pyrimidin-2-yl)amino]-3-methoxy-phenoxy]methyl]pyrrolidin-1-yl]ethanone] | 7.89
COc1cc(N2CCN(CCO)CC2)ccc1Nc1ncc(Br)c(-c2cnc3ccccn23)n1 [Example 115, 2-[4-[4-[(5-bromo-4-imidazo[1,2-a]pyridin-3-yl-pyrimidin-2-yl)amino]-3-methoxy-phenyl]piperazin-1-yl]ethanol] | 8.30
COc1cc(N2CCN(CCO)CC2)ccc1Nc1ncc(C#N)c(-c2cnc3ccccn23)n1 [Example 116, 2-[[4-[4-(2-hydroxyethyl)piperazin-1-yl]-2-methoxy-phenyl]amino]-4-imidazo[1,2-a]pyridin-3-yl-pyrimidine-5-carbonitrile] | 7.89
COc1cc(N2CCN(C(C)=O)CC2)ccc1Nc1ncc(C#N)c(-c2cnc3ccccn23)n1 [Example 118, 2-[[4-(4-acetylpiperazin-1-yl)-2-methoxy-phenyl]amino]-4-imidazo[1,2-a]pyridin-3-yl-pyrimidine-5-carbonitrile] | 7.04
COc1cc(N2CCN(C)CC2)ccc1Nc1ncc(F)c(-c2cnc3ccccn23)n1 [Example 119, 5-fluoro-4-imidazo[1,2-a]pyridin-3-yl-N-[2-methoxy-4-(4-methylpiperazin-1-yl)phenyl]pyrimidin-2-amine] | 7.02
CCN1CCN(c2ccc(Nc3ncc(F)c(-c4cnc5ccccn45)n3)c(OC)c2)CC1 [Example 120, N-[4-(4-ethylpiperazin-1-yl)-2-methoxyphenyl]-5-fluoro-4-imidazo[1,2-a]pyridin-3-ylpyrimidin-2-amine] | 6.89
COc1cc(N2CCN(C)CC2)ccc1Nc1ncc(Br)c(-c2cnc3ccccn23)n1 [Example 121, 5-bromo-4-imidazo[1,2-a]pyridin-3-yl-N-[2-methoxy-4-(4-methylpiperazin-1-yl)phenyl]pyrimidin-2-amine] | 7.82
CCOc1cc(N2CCN(C)CC2)ccc1Nc1ncc(Br)c(-c2cnc3ccccn23)n1 [Example 122, 5-bromo-N-[2-ethoxy-4-(4-methylpiperazin-1-yl)phenyl]-4-imidazo[1,2-a]pyridin-3-yl-pyrimidin-2-amine] | 8.10
COc1cc(OC2CCN(C)C2)ccc1Nc1ncc(Br)c(-c2cnc3ccccn23)n1 (centres unmarked) [Example 123, 5-bromo-4-imidazo[1,2-a]pyridin-3-yl-N-[2-methoxy-4-(1-methylpyrrolidin-3-yl)oxy-phenyl]pyrimidin-2-amine] | 8.30
COc1cc(C)c(Nc2ncc(Br)c(-c3cnc4ccccn34)n2)cc1OC [Example 124, 5-bromo-N-(4,5-dimethoxy-2-methyl-phenyl)-4-imidazo[1,2-a]pyridin-3-yl-pyrimidin-2-amine] | 7.51
